Assay results taken from patent US12435050B2, “Benazolin-choline and its use in the agrochemical field” (BAYER AKTIENGESELLSCHAFT, priority 2019, dated 2025).
“Also recorded” adds a separate entry of the source. Where two headings read alike, the source gives them in different places.

Tests used:
[1] = cited from earlier work
[2] = Formulation compatibility: crystal formation after low temperature storage, mixing with dicamba (Clarity); assay type: physicochemical; conditions: benazolin salt SL10 mixed with Clarity, ratio 2:1 (a.e., w/w), 5° C. for 2 days
Experimental: (§1) Here simple mixing experiments were performed with soluble liquid SL 10 formulations of benazolin salts containing […] a.e. of benazolin (see General procedure 51 above) containing no surfactant and commercially available dicamba and glyphosate formulations.
(§2) Formulation compatibility (solubility, miscibility and storability) tests of different benazolin salt SL 10 formulations in mixture with commercial formulations of herbicides such as dicamba or glyphosate were performed.
In a first experiment, Clarity® (a commercial formulation of dicamba) was tank mixed with the respective benazolin salt SL 10 formulation in a 2:1 ratio by weight (w/w) based on the respective a.e. contents (in Table B5a referred to as “Ratio”) and the vial placed at 5° C. for 2 days.

[3] = system: Alternanthera tenella (ALRTE); experiment: Field weed control efficacy on ALRTE; assay type: in vivo; conditions: 200 g a.e./ha, ALRTE at BBCH 14-16 at application
Text: (§3) The different forms of benazolin were applied to weed plants in the greenhouse or in the field at the growth stage indicated for the different weed species hereinafter. The trials in the greenhouse were sprayed with an application volume of 300 L/ha with an automated track sprayer. The plots in the field were sprayed with an application volume of 140 L/ha with a hand held spray boom. Twenty-one days after application (21 DAA) or twenty-eight days after application (28 DAA) the different weed species were visually rated on a percentage scale in relation to the untreated control (100%=all plants dead; 50%=green plant biomass reduced by 50%, and 0%=no discernible difference=like control plot). The growth stages of the different weed species are indicated according to the BBCH monograph “Growth stages of mono- and dicotyledonous plants”, 2nd edition, 2001, ed. Uwe Meier, Federal Biological Research Centre for Agriculture and Forestry (Biologische Bundesanstalt für Land and Forstwirtschaft).

[4] = system: Euphorbia heterophylla (EPHHL); experiment: Field weed control efficacy on EPHHL; assay type: in vivo; conditions: 200 g a.e./ha, EPHHL at BBCH 16-17 at application
Text: as §3

[5] = system: Amaranthus retroflexus (AMARE); experiment: Greenhouse weed control efficacy on AMARE; assay type: in vivo; conditions: for % Control compared to untreated AMARE plants 21 DAA: 100 g a.e./ha, AMARE at BBCH 16-19 at application, visual rating 21 DAA; for % Control compared to untreated plants 21 DAA AMARE: BBCH 16-19, 21 DAA
Text: as §3

[6] = system: Chenopodium album (CHEAL); experiment: Greenhouse weed control efficacy on CHEAL; assay type: in vivo; conditions: BBCH 15-24, 21 DAA
Text: as §3

[7] = Formulation compatibility: crystal formation after low temperature storage, mixing with glyphosate (Roundup Weathermax); assay type: physicochemical; conditions: benazolin salt SL10 mixed with Roundup Weathermax, ratio 4:1 (a.e., w/w), 5° C. for 2 days
Experimental: as §1, §2
In a second experiment, Roundup® Weathermax was tank mixed with the respective benazolin salt SL 10 formulation in a 4:1 ratio by weight (w/w) based on the respective a.e. contents (in Table B5b referred to as “Ratio”) and the vial placed at 5° C. for 2 days.

[8] = system: Portulaca oleracea (POROL); experiment: Field weed control efficacy on POROL; assay type: in vivo; conditions: 200 g a.e./ha, POROL at BBCH 21-22 at application
Text: as §3

[9] = free acid, temperature not printed with the values (b59 refers to 25° C.)
[10] = benazolin salt 100 g a.e./ha in combination with 100 g a.e./ha dicamba (Clarity)
[11] = benazolin salt 100 g a.e./ha in combination with 200 g a.e./ha dicamba (Clarity)
[12] = benazolin salt 100 g a.e./ha in combination with 300 g a.e./ha dicamba (Clarity)

Microscopic evaluation (crystal formation) [7]	Structure (SMILES)	% Control compared to untreated ALRTE plants 21 DAA [3] [%]	% Control compared to untreated EPHHL plants 28 DAA [4] [%]	% Control compared to untreated AMARE plants 21 DAA [5] [%]	% Control compared to untreated plants 21 DAA AMARE [5, 10] [%]	% Control compared to untreated plants 21 DAA AMARE [5, 11] [%]	% Control compared to untreated plants 21 DAA AMARE [5, 12] [%]	% Control compared to untreated plants 21 DAA CHEAL [6, 10] [%]	% Control compared to untreated plants 21 DAA CHEAL [6, 11] [%]	% Control compared to untreated plants 21 DAA CHEAL [6, 12] [%]	% Control compared to untreated POROL plants 28 DAA [8] [%]	also measured
	O=C(O)COc1ccc(Cl)cc1Cl [2,4-D, 2,4-dichlorophenoxy)acetic acid]											vapor pressure [1, 9]: about 0.019 mPa
	COc1c(Cl)ccc(Cl)c1C(=O)O [Dicamba, 3,6-dichloro-2-methoxybenzoic acid]											vapor pressure [1, 9]: 4.5 mPa
Crystal formation	O=C(O)Cn1c(=O)sc2cccc(Cl)c21 [Benazolin-DGA]	44	8	40	35	40	55	25	65	50	50	Microscopic evaluation (shape of crystals) [7]: needles; Microscopic evaluation (size of crystals in μm) [7]: (60-100 μm),
	O=C(O)Cn1c(=O)sc2cccc(Cl)c21 [Benazolin-DEA]											Microscopic evaluation (crystal formation) [2]: Crystal formation; Microscopic evaluation (shape of crystals) [2]: platelets + needles; Microscopic evaluation (size of crystals in μm) [2]: (20-40 μm),
	O=C(O)Cn1c(=O)sc2cccc(Cl)c21 [Benazolin-BAPMA]			65	35	50	65	50	65	67		
	O=C(O)Cn1c(=O)sc2cccc(Cl)c21 [Benazolin, 4-Chloro-2,3-dihydro-2-oxo-1,3-benzothiazol-3-ylacetic acid]	40	5	25							88	vapor pressure ([1]; at 20° C.): 0.0001 mPa
Crystal formation	O=C([O-])Cn1c(=O)sc2cccc(Cl)c21.[K+] [Benazolin-K]											Microscopic evaluation (shape of crystals) [7]: platelets + needles; Microscopic evaluation (size of crystals in μm) [7]: (20-50 μm),
	CCOC(=O)Cn1c(=O)sc2cccc(Cl)c21 [Benazolin-ethyl, Ethyl (4-chloro-2-oxo-1,3-benzothiazol-3(2H)-yl)acetate]	40	8	35							88	

Structure (SMILES)	Microscopic evaluation (crystal formation) [7]	% Control compared to untreated ALRTE plants 21 DAA [3] [%]	% Control compared to untreated EPHHL plants 28 DAA [4] [%]	% Control compared to untreated AMARE plants 21 DAA [5] [%]	% Control compared to untreated plants 21 DAA AMARE [5, 10] [%]	% Control compared to untreated plants 21 DAA AMARE [5, 11] [%]	% Control compared to untreated plants 21 DAA AMARE [5, 12] [%]	% Control compared to untreated plants 21 DAA CHEAL [6, 10] [%]	% Control compared to untreated plants 21 DAA CHEAL [6, 11] [%]	% Control compared to untreated plants 21 DAA CHEAL [6, 12] [%]	% Control compared to untreated POROL plants 28 DAA [8] [%]	also measured
O=C(O)Cn1c(=O)sc2cccc(Cl)c21 [Benazolin-choline]	no crystal formation was observed; also recorded: No crystals	48	13	70	50	80	75	70	80	85	100	Microscopic evaluation (crystal formation) [2]: no crystal formation was observed; also recorded: No crystals
